Measurements published in US12668584B2, “Heterocyclic compounds as kinase inhibitors for therapeutic uses” (National Health Research Institutes, priority 2019, dated 2026).

Columns and labels:
[1] = target: tyrosine-protein kinase Kit (c-Kit) (Homo sapiens, UniProt P10721); experiment: HotSpot kinase profiling, c-Kit; assay type: biochemical; conditions: HotSpot assay, 10 μM ATP; IC50 of kinase divided by that of CSF1R
Protocol: (§1) A study was conducted to determine kinase selectivity of compounds 27 and 67. More specifically, each compound was tested for inhibitory activity of CSF1R kinase, as compared to that of seven other kinases, i.e., Aurora A, Aurora B, tyrosine-protein kinase Kit (c-Kit), fms-like tyrosine kinase 3 (FLT3), platelet-derived growth factor receptor (PDGFR) A, PDGFR B, and discoidin domain receptor tyrosine kinase 1 (DDR1).
(§2) In vitro profiling of the kinase panel was performed at Reaction Biology Corporation (www.reactionbiology.com, Malvern, PA) using the “HotSpot” assay platform. Briefly, specific kinase/substrate pairs along with required cofactors were prepared in a reaction buffer containing 20 mM Hepes pH 7.5, 10 mM MgCl2, 1 mM EGTA, 0.02% Brij35, 0.02 mg/ml BSA, 0.1 mM NA3VO4, 2 mM DTT, and 1% DMSO. Compound 27 or 67 was added. 20 minutes later, a mixture of ATP (Sigma, St. Louis MO) and ^33P ATP (Perkin Elmer, Waltham MA) was added to the resulting reaction solution to give a final concentration of 10 μM. The reaction was carried out at room temperature for 120 min., followed by spotting the reaction solution onto P81 ion exchange filter paper (Whatman Inc., Piscataway, NJ). Unbound phosphate was removed by extensive washing filters in 0.75% phosphoric acid. […] Selectivity, expressed as an IC50 ratio, was determined by dividing the IC50 value of a kinase, e.g., Aurora A, by that of CSF1R.

[2] = target: CSF1R (Homo sapiens, UniProt P07333); experiment: HotSpot kinase profiling, CSF1R; assay type: biochemical; conditions: HotSpot assay, 10 μM ATP
Chain of CSF1R (P07333 20-972): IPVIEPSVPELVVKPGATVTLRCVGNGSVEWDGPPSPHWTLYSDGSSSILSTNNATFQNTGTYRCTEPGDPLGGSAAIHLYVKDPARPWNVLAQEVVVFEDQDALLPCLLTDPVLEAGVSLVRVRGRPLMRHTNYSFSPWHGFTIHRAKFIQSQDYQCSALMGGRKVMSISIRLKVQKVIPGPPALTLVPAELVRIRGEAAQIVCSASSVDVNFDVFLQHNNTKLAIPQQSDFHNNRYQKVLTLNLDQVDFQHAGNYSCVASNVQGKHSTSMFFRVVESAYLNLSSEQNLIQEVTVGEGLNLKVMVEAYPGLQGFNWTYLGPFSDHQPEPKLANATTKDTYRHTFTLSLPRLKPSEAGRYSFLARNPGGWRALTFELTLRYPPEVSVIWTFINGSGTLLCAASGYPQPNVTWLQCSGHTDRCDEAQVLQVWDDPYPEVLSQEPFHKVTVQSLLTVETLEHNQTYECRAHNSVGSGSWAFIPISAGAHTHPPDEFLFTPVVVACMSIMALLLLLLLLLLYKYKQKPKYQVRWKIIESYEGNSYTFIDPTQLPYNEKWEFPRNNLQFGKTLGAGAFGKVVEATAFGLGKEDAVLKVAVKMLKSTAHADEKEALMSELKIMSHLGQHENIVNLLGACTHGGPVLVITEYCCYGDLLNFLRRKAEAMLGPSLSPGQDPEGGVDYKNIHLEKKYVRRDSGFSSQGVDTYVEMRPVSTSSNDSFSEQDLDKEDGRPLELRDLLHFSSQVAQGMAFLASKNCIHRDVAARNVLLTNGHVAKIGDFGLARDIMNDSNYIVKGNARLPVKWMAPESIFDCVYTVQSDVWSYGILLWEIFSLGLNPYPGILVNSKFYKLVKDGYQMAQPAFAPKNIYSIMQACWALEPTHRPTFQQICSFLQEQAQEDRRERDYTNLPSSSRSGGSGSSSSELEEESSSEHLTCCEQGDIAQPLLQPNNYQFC
Protocol: as §1, §2

[3] = target: discoidin domain receptor tyrosine kinase 1 (DDR1) (Homo sapiens, UniProt Q08345); experiment: HotSpot kinase profiling, DDR1; assay type: biochemical; conditions: HotSpot assay, 10 μM ATP; IC50 of kinase divided by that of CSF1R
Chain of discoidin domain receptor tyrosine kinase 1 (DDR1) (Q08345 19-913): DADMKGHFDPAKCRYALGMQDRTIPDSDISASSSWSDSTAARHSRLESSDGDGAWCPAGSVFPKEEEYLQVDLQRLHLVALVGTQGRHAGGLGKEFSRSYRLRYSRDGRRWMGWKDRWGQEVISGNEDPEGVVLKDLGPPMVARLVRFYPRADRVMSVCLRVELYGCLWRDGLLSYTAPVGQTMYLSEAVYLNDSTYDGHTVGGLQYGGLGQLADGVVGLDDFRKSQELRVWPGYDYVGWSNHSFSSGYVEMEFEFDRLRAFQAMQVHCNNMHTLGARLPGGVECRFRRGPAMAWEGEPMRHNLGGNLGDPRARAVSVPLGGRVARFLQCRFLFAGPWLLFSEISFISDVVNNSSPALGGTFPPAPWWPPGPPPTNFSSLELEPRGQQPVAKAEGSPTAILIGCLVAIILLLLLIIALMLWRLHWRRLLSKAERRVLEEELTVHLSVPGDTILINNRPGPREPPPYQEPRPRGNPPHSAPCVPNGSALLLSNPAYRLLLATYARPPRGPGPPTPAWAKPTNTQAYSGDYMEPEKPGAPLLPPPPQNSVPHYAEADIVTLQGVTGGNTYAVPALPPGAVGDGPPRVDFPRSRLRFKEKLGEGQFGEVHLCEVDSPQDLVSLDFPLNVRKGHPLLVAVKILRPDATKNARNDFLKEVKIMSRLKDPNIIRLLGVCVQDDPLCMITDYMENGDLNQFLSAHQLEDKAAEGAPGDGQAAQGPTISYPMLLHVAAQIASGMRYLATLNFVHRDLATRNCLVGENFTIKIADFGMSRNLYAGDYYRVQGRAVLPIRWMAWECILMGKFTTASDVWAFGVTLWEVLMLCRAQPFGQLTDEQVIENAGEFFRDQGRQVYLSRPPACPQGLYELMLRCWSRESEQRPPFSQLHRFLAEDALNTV
Protocol: as §1, §2

[4] = target: PDGFR B (Homo sapiens, UniProt P09619); experiment: HotSpot kinase profiling, PDGFR B; assay type: biochemical; conditions: HotSpot assay, 10 μM ATP; IC50 of kinase divided by that of CSF1R
Protocol: as §1, §2

[5] = target: T1, Aurora A (Homo sapiens, UniProt O14965); experiment: HotSpot kinase profiling, Aurora A; assay type: biochemical; conditions: HotSpot assay, 10 μM ATP; IC50 of kinase divided by that of CSF1R
T1 sequence (O14965 1-403): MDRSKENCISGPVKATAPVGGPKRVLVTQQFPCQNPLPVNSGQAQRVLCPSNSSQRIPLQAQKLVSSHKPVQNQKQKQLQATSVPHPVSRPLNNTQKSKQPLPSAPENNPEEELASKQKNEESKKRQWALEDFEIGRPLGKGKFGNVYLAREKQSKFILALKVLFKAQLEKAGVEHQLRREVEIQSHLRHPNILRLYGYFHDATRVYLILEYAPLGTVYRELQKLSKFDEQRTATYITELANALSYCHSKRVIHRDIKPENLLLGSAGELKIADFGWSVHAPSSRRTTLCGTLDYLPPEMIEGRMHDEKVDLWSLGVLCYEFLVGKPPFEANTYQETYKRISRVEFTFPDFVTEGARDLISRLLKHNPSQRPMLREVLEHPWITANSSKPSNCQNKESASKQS
Protocol: as §1, §2

[6] = target: Aurora B (Homo sapiens, UniProt Q96GD4); experiment: HotSpot kinase profiling, Aurora B; assay type: biochemical; conditions: HotSpot assay, 10 μM ATP; IC50 of kinase divided by that of CSF1R
Chain of Aurora B (Q96GD4 whole entry, the tested form may be a part): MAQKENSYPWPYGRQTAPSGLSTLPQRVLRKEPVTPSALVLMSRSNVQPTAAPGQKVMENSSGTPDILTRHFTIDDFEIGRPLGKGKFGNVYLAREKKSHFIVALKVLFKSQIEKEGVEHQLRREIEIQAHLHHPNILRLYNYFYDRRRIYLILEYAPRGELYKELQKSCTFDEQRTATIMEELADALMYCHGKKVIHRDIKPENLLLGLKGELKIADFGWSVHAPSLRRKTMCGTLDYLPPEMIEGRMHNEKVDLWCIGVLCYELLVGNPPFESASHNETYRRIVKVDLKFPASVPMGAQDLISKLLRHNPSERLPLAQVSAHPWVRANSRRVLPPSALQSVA
Protocol: In vitro profiling of the kinase panel was performed at Reaction Biology Corporation (www.reactionbiology.com, Malvern, PA) using the “HotSpot” assay platform. Briefly, specific kinase/substrate pairs along with required cofactors were prepared in a reaction buffer containing 20 mM Hepes pH 7.5, 10 mM MgCl2, 1 mM EGTA, 0.02% Brij35, 0.02 mg/ml BSA, 0.1 mM NA3VO4, 2 mM DTT, and 1% DMSO. […] 20 minutes later, a mixture of ATP (Sigma, St. Louis MO) and ^33P ATP (Perkin Elmer, Waltham MA) was added to the resulting reaction solution to give a final concentration of 10 μM. The reaction was carried out at room temperature for 120 min., followed by spotting the reaction solution onto P81 ion exchange filter paper (Whatman Inc., Piscataway, NJ). Unbound phosphate was removed by extensive washing filters in 0.75% phosphoric acid. […] Selectivity, expressed as an IC50 ratio, was determined by dividing the IC50 value of a kinase, e.g., Aurora A, by that of CSF1R.

[7] = system: BaF3-CSF1R-1600 cells (express ETV6-CSF1R fusion protein); experiment: MTS cell viability assay, BaF3-CSF1R-1600; assay type: cell-based; conditions: 72 h, read-out: Cellular Proliferation Assay BaF3-CSF1R GI50
How it was run: (§3)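 Cells seeded 16 h beforehand (10000 M-NFS-60 or 8000 BaF3-CSF1R-1600 per well), then exposed 72 h to test compounds in RPMI1640 with 10% FBS at 37 °C. Viability read by MTS absorbance at 490 nm; GI50 is the concentration giving 50% viability reduction versus DMSO vehicle.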

[8] = target: platelet-derived growth factor receptor (PDGFR) A (Homo sapiens, UniProt P16234); experiment: HotSpot kinase profiling, PDGFR A; assay type: biochemical; conditions: HotSpot assay, 10 μM ATP; IC50 of kinase divided by that of CSF1R
Chain of platelet-derived growth factor receptor (PDGFR) A (P16234 24-1089): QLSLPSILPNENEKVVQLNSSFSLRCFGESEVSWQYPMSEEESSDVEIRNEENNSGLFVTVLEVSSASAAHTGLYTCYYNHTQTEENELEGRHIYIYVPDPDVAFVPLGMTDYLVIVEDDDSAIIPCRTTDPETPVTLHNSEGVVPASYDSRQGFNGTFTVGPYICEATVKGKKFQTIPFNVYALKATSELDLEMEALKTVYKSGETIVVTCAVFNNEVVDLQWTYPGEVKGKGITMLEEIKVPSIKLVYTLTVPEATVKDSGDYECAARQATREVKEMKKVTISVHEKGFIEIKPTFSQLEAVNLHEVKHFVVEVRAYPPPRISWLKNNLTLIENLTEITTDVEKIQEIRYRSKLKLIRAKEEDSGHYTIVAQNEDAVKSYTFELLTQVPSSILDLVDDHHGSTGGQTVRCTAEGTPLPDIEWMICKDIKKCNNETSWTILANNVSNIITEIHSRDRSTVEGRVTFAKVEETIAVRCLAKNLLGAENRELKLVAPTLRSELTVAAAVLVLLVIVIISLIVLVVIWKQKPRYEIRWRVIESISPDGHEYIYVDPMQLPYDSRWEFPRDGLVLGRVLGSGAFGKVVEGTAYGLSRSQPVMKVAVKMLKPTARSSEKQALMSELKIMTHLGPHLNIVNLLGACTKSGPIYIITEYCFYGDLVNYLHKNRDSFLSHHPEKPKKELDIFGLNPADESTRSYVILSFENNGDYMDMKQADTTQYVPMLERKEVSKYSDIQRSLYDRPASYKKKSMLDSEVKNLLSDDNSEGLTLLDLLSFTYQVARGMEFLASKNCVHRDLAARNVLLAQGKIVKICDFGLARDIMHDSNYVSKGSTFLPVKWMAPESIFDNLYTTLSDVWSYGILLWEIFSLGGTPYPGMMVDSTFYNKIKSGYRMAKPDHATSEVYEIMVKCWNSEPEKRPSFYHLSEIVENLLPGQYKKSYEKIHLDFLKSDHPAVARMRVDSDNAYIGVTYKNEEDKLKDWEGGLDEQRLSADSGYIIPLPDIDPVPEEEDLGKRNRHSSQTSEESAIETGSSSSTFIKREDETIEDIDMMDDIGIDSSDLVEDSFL
Protocol: as §1, §2

[9] = system: M-NFS-60 cells; experiment: MTS cell viability assay, M-NFS-60; assay type: cell-based; conditions: 72 h, read-out: Cellular Proliferation Assay M-NFS-60 (nM) GI50
How it was run: as §3

Chain of tyrosine-protein kinase Kit (c-Kit) (P10721 26-976): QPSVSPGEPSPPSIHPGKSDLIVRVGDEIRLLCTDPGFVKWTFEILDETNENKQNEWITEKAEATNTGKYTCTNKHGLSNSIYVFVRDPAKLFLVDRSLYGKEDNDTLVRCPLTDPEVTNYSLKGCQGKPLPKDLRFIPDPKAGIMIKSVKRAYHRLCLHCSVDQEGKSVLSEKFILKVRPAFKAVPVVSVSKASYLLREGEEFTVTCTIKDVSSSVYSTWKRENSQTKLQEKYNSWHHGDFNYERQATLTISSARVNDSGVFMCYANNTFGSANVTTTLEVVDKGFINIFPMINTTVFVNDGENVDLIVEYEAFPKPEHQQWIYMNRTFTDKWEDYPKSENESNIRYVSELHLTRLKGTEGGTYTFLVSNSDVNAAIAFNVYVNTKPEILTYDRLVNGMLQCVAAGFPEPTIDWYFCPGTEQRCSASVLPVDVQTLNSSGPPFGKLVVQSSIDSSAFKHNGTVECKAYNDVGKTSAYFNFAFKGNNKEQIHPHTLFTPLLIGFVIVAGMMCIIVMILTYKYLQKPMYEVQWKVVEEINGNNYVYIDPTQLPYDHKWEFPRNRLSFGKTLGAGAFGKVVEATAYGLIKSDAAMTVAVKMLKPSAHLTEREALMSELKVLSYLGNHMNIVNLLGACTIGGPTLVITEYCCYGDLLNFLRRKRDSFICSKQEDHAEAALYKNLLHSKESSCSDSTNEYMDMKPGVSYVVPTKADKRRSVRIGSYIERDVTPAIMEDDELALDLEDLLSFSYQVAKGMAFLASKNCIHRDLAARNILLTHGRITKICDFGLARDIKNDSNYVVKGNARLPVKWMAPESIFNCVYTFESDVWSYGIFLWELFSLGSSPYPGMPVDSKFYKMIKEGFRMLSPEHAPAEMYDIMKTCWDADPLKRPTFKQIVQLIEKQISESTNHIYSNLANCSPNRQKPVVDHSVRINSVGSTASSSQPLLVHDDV

Row | SMILES | IC50 ratio c-Kit / CSF1R [1] | IC50 [2] [nM] | IC50 ratio DDR1 / CSF1R [3] | IC50 ratio PDGFR B / CSF1R [4] | IC50 ratio Aurora A / CSF1R [5] | IC50 ratio Aurora B / CSF1R [6] | GI50 [7] [nM] | IC50 ratio PDGFR A / CSF1R [8] | GI50 [9] [nM]
1 | CN(C)c1ccc2c(Oc3ccc(NC(=O)NCc4ccc(C(F)(F)F)nc4)cc3)ncnc2c1 [Compound 27, 1-(4-((7-(dimethylamino)quinazolin-4-yl)oxy)phenyl)-3-((6-(trifluoromethyl)pyridin-3-yl)methyl)urea] | ++ (++: 100 > IC50 ratio > 10) | 0.534 | +++ (+++: 1000 > IC50 ratio > 100) | ++ (++: 100 > IC50 ratio > 10) | ++++ (++++: IC50 ratio > 1000) | +++ (+++: 1000 > IC50 ratio > 100) | 20 to 100 | ++ (++: 100 > IC50 ratio > 10) | 20 to 100
2 | CN(C)c1ccc2c(Oc3ccc4c(ccn4C(=O)NCc4ccc(C(F)(F)F)nc4)c3)ncnc2c1 [Compound 67, 5-((7-(dimethylamino)quinazolin-4-yl)oxy)-N-((6-(trifluoromethyl)pyridin-3-yl)methyl)-1H-indole-1-carboxamide] | +++ (+++: 1000 > IC50 ratio > 100) | 5.69 | + (+: 10 > IC50 ratio > 1) | +++ (+++: 1000 > IC50 ratio > 100) | +++ (+++: 1000 > IC50 ratio > 100) | +++ (+++: 1000 > IC50 ratio > 100) | 20 to 100 | ++ (++: 100 > IC50 ratio > 10) | 100 to 1000
